In the supplement of paper PMC7600603:

Tests used:
[1] = test system: DLD1 NRF2-WT; conditions: 72 h; CellTiter-Glo viability
Summary of the method: (§1)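 DLD1 colorectal cancer cells, an isogenic pair either NRF2 wild-type or carrying a CRISPR gain-of-function, were cultured in DMEM with 10% FBS and treated in 384-well plates with library compounds at 5 concentrations across a 10,000-fold range. CellTiter-Glo viability was read on a Pherastar FS reader after 72 h and normalised to vehicle wells and 100-μM positive-control wells. Four-parameter logistic dose-response fits were applied. EC50 and drug sensitivity score, a normalised area under the curve, were taken from these fits.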

[2] = test system: DLD1 NRF2-GOF; conditions: 72 h; CellTiter-Glo viability
Summary of the method: as §1

[3] = test system: DLD1 NRF2-WT; experiment: drug sensitivity score (DSS) cytotoxicity (DSS score); higher = more toxic; extreme values may be limits of the assay; conditions: 72 h; CellTox Green cytotoxicity
Summary of the method: (§2)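 After growth in DMEM with 10% FBS, NRF2 wild-type and CRISPR-edited isogenic DLD1 cells were seeded in 384-well plates and given library compounds at 5 concentrations across a 10,000-fold range. Fluorescence from CellTox Green was taken on a Pherastar FS reader after 72 h and normalised against vehicle wells and 100-μM positive-control wells. From logistic dose-response fits of cytotoxicity came the TC50 and the drug sensitivity score, a normalised area under the curve.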

[4] = test system: DLD1 NRF2-GOF; experiment: as above; conditions: 72 h; CellTox Green cytotoxicity
Summary of the method: as §2

[5] = test system: DLD1 NRF2-WT; experiment: drug sensitivity score (DSS) viability (DSS score); higher = more sensitive; extreme values may be limits of the assay; conditions: 72 h; CellTiter-Glo viability
Summary of the method: as §1

[6] = test system: DLD1 NRF2-GOF; experiment: as above; conditions: 72 h; CellTiter-Glo viability
Summary of the method: as §1

[7] = test system: DLD1 NRF2-WT; experiment: TC50 cytotoxicity; higher = less toxic; conditions: 72 h; CellTox Green cytotoxicity
Summary of the method: as §2

[8] = test system: DLD1 NRF2-GOF; experiment: TC50 cytotoxicity; higher = less toxic; conditions: 72 h; CellTox Green cytotoxicity
Summary of the method: as §2

| Structure (SMILES) | EC50 viability [1] [nM] | EC50 viability [2] [nM] | drug sensitivity score [3] | drug sensitivity score [4] | drug sensitivity score [5] | drug sensitivity score [6] | TC50 cytotoxicity [7] [nM] | TC50 cytotoxicity [8] [nM] |
| --- | --- | --- | --- | --- | --- | --- | --- | --- |
| C=C1C[C@@H]2[C@H](CC[C@]3(C)C(=O)CC[C@@H]23)[C@@]2(C)C=CC(=O)C=C12 [Exemestane] | > 10000 | > 10000 | 0 | 0 | 0.1 | 0.9 | > 10000 | > 10000 |
| CCn1c(=O)c(-c2ccc(Cl)cc2Cl)cc2cnc(Nc3ccc(N4CCNCC4)c(F)c3)nc21 [FRAX486] | 250 | 626 | 0 | 0 | 9.8 | 7.1 | > 5000 | > 5000 |
| Cc1cnc(Nc2ccc(OCCN3CCCC3)cc2)nc1Nc1cccc(S(=O)(=O)NC(C)(C)C)c1 [Fedratinib] | 1410 | 1890 | 3.8 | 4.3 | 9.6 | 8.2 | 2400 | 2500 |
| CON(C)C(=O)N1N=C(c2cc(F)ccc2F)S[C@@]1(CCCN)c1ccccc1 [Filanesib] | 6.4 | 4.6 | 5.3 | 6.2 | 21.5 | 18.6 | > 1000 | > 1000 |
| O=C(Nc1nc2cccc(-c3ccc(CN4CCS(=O)(=O)CC4)cc3)n2n1)C1CC1 [Filgotinib] | 2090 | 790 | 0 | 0.8 | 6.7 | 11.7 | > 10000 | > 10000 |
| CCCCCCCCc1ccc(CCC(N)(CO)CO)cc1 [Fingolimod] | 3220 | 2580 | 5.6 | 6.4 | 5.5 | 6.7 | 2420 | 2730 |
| O=c1[nH]c(=O)n([C@H]2C[C@H](O)[C@@H](CO)O2)cc1F [Floxuridine] | 255 | 258 | 0 | 0 | 12.2 | 11.8 | > 10000 | > 10000 |
| Nc1nc(F)nc2c1ncn2[C@@H]1O[C@H](CO)[C@@H](O)[C@@H]1O [Fludarabine] | > 10000 | > 10000 | 0 | 0 | 0.1 | 0 | > 10000 | > 10000 |
| O=c1[nH]cc(F)c(=O)[nH]1 [Fluorouracil] | 1 | 176 | 0 | 0 | 10.3 | 7.1 | > 10000 | > 10000 |
| COc1cc2c(Oc3ccc(NC(=O)C4(C(=O)Nc5ccc(F)cc5)CC4)cc3F)ccnc2cc1OCCCN1CCOCC1 [Foretinib] | 414 | 361 | 3.2 | 6.3 | 2.1 | 3.3 | 280 | 267 |
| COc1cc(Nc2ncc(F)c(Nc3ccc4c(n3)N(COP(=O)(O)O)C(=O)C(C)(C)O4)n2)cc(OC)c1OC [Fostamatinib] | 38.5 | 93 | 0 | 0.2 | 6.2 | 7.4 | > 2500 | > 2500 |
| CC1(C)OCCn2c1nc1c(N3CCOCC3)nc(-c3cnc(N)nc3)nc12 [GDC-0084] | 725 | 1340 | 1.1 | 0.3 | 10.9 | 8.4 | 3650 | > 10000 |
| O=C(NOCCO)c1ccc2cncn2c1Nc1ccc(I)cc1F [GDC-0623] | 429 | > 2500 | 0 | 0 | 3.3 | 0 | > 2500 | > 2500 |
| CCNc1nc(Nc2cc(F)c(C(=O)N3CCOCC3)cc2OC)ncc1C(F)(F)F [GNE-7915] | 148 | 253 | 0 | 0 | 3.3 | 2.9 | > 1000 | > 1000 |
| CCCc1cc(C)[nH]c(=O)c1CNC(=O)c1cc(-c2ccnc(N3CCN(C)CC3)c2)cc2c1cnn2C(C)C [GSK343] | > 1000 | > 1000 | 0 | 0 | 0 | 0 | > 1000 | > 1000 |
| CCOC(=O)CCNc1cc(N2CCc3ccccc3CC2)nc(-c2ccccn2)n1 [GSK-J4] | 2950 | 3550 | 0 | 7.8 | 17 | 16.4 | > 100000 | 2800 |
| C[C@H]1C=C2C(=O)O[C@H]3CC[C@@H](C1)[C@@]23O [Galiellalactone] | > 25000 | 414 | 0 | 0 | 2.8 | 5.1 | > 25000 | > 25000 |
| Cc1cccc(-c2nn3c(c2-c2ccnc4ccc(C(N)=O)cc24)CCC3)n1 [Galunisertib] | > 1000 | 163 | 0 | 0 | 1.6 | 2.6 | > 1000 | > 1000 |
| Cc1cc(Nc2cc(CN3CCOCC3)c3nc(C)c(Cc4ccc(Cl)cc4F)n3n2)n[nH]1 [Gandotinib] | 2280 | 2090 | 2.8 | 6.1 | 5 | 6.2 | 1890 | 1620 |
| CC(C)c1cc(-c2n[nH]c(=O)n2-c2ccc3c(ccn3C)c2)c(O)cc1O [Ganetespib] | 26.6 | 22.8 | 0 | 0 | 17.9 | 18.4 | > 1000 | > 1000 |
| CN(C)C1CCN(C(=O)c2ccc(NC(=O)Nc3ccc(-c4nc(N5CCOCC5)nc(N5CCOCC5)n4)cc3)cc2)CC1 [Gedatolisib] | 19.6 | 26.6 | 0 | 0 | 13.5 | 12.6 | > 1000 | > 1000 |
